Reference: US6339045B1, “N-(unsubstituted or substituted)-4-substituted-6-(unsubstituted or substituted)phenoxy-2-pyridinecarboxamides or thiocarboxamides, processes for producing the same, and herbicides” (Kureha Kagaku Kogyo Kabushiki Kaisha, priority 1995, dated 2002)

How the values were obtained:
Test in all cases: Herbicidal effect by foliage and soil treatment
Type in all cases: in vivo
Conditions in all cases: 10 g ai/10a, evaluated after 14 days
[1] = test system: velvetleaf (Abutilon theophrasti)
How it was run: (§1)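 Scores are ratings of growth versus untreated plants 14 days after treatment. Plants grown to cotyledonal–bifoliate stage in granular soil at 19 to 25° C received a foliage-and-soil spray of test solution containing Tween 20, applied at a set compound amount.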

[2] = test system: field bindweed (Convolvulus arvensis)
How it was run: as §1

[3] = test system: common blackjack (Bidens pilosa)
How it was run: as §1

[4] = test system: black nightshade (Solanum nigrum)
How it was run: as §1

[5] = test system: common chickweed (Stellaria media)
How it was run: as §1

[6] = test system: redroot pigweed (Amaranthus retroflexus)
How it was run: as §1

[7] = test system: cleavers (Galium aparine)
How it was run: as §1

[8] = test system: wild chamomile (Matricaria chamomilla)
How it was run: as §1

[9] = test system: sicklepod (Cassia obtusifolia)
How it was run: as §1

[10] = test system: ivyleafspeedwell (Veronica hederaefolia)
How it was run: as §1

[11] = test system: kediock (Sinapis arvensis)
How it was run: as §1

## COCCCNC(=O)c1cc(OC)cc(Oc2cccc(C(F)(F)F)c2)n1 [Compound I-75]
[1]
  herbicidal activity rating, AT (Abutilon theophrasti): 3 (percentage of weeds killed was not less than 40% and less than 60%)
[2]
  herbicidal activity rating, CA (Convolvulus arvensis): 4 (percentage of weeds killed was not less than 60% and less than 80%)
[3]
  herbicidal activity rating, BP (Bidens pilosa): 3 (percentage of weeds killed was not less than 40% and less than 60%)
[4]
  herbicidal activity rating, SN (Solanum nigrum): 5 (percentage of weeds killed was not less than 80%)
[5]
  herbicidal activity rating, SM (Stellaria media): 5 (percentage of weeds killed was not less than 80%)
[6]
  herbicidal activity rating, AR (Amaranthus retroflexus): 5 (percentage of weeds killed was not less than 80%)
[7]
  herbicidal activity rating, GA (Galium aparine): 5 (percentage of weeds killed was not less than 80%)
[8]
  herbicidal activity rating, MC (Matricaria chamomilla): 4 (percentage of weeds killed was not less than 60% and less than 80%)
[9]
  herbicidal activity rating, CO (Cassia obtusifolia): 5 (percentage of weeds killed was not less than 80%)
[10]
  herbicidal activity rating, VH (Veronica hederaefolia): 5 (percentage of weeds killed was not less than 80%)
[11]
  herbicidal activity rating, SA (Sinapis arvensis): 5 (percentage of weeds killed was not less than 80%)

## CCNC(=S)c1cc(OC)cc(Oc2cccc(C(F)(F)F)c2)n1 [Compound I-44]
[1]
  herbicidal activity rating, AT (Abutilon theophrasti): 4 (percentage of weeds killed was not less than 60% and less than 80%)
[2]
  herbicidal activity rating, CA (Convolvulus arvensis): 4 (percentage of weeds killed was not less than 60% and less than 80%)
[3]
  herbicidal activity rating, BP (Bidens pilosa): 4 (percentage of weeds killed was not less than 60% and less than 80%)
[4]
  herbicidal activity rating, SN (Solanum nigrum): 5 (percentage of weeds killed was not less than 80%)
[5]
  herbicidal activity rating, SM (Stellaria media): 5 (percentage of weeds killed was not less than 80%)
[6]
  herbicidal activity rating, AR (Amaranthus retroflexus): 5 (percentage of weeds killed was not less than 80%)
[7]
  herbicidal activity rating, GA (Galium aparine): 5 (percentage of weeds killed was not less than 80%)
[8]
  herbicidal activity rating, MC (Matricaria chamomilla): 3 (percentage of weeds killed was not less than 40% and less than 60%)
[9]
  herbicidal activity rating, CO (Cassia obtusifolia): 5 (percentage of weeds killed was not less than 80%)
[10]
  herbicidal activity rating, VH (Veronica hederaefolia): 5 (percentage of weeds killed was not less than 80%)
[11]
  herbicidal activity rating, SA (Sinapis arvensis): 5 (percentage of weeds killed was not less than 80%)

## CCOCONC(=O)c1cc(OC)cc(Oc2cccc(C(F)(F)F)c2)n1 [Compound I-105]
[1]
  herbicidal activity rating, AT (Abutilon theophrasti): 4 (percentage of weeds killed was not less than 60% and less than 80%)
[2]
  herbicidal activity rating, CA (Convolvulus arvensis): 4 (percentage of weeds killed was not less than 60% and less than 80%)
[3]
  herbicidal activity rating, BP (Bidens pilosa): 4 (percentage of weeds killed was not less than 60% and less than 80%)
[4]
  herbicidal activity rating, SN (Solanum nigrum): 5 (percentage of weeds killed was not less than 80%)
[5]
  herbicidal activity rating, SM (Stellaria media): 4 (percentage of weeds killed was not less than 60% and less than 80%)
[6]
  herbicidal activity rating, AR (Amaranthus retroflexus): 5 (percentage of weeds killed was not less than 80%)
[7]
  herbicidal activity rating, GA (Galium aparine): 5 (percentage of weeds killed was not less than 80%)
[8]
  herbicidal activity rating, MC (Matricaria chamomilla): 3 (percentage of weeds killed was not less than 40% and less than 60%)
[9]
  herbicidal activity rating, CO (Cassia obtusifolia): 5 (percentage of weeds killed was not less than 80%)
[10]
  herbicidal activity rating, VH (Veronica hederaefolia): 5 (percentage of weeds killed was not less than 80%)
[11]
  herbicidal activity rating, SA (Sinapis arvensis): 5 (percentage of weeds killed was not less than 80%)

## CSc1cc(Oc2cccc(C(F)(F)F)c2)nc(C(=O)NC(C)C)c1 [Compound I-55, N-(i-propyl)-4-methylmercapto-6-{3-(trifluoromethyl)phenoxy}-2-pyridine carboxamide]
[1]
  herbicidal activity rating, AT (Abutilon theophrasti): 4 (percentage of weeds killed was not less than 60% and less than 80%)
[2]
  herbicidal activity rating, CA (Convolvulus arvensis): 4 (percentage of weeds killed was not less than 60% and less than 80%)
[3]
  herbicidal activity rating, BP (Bidens pilosa): 4 (percentage of weeds killed was not less than 60% and less than 80%)
[4]
  herbicidal activity rating, SN (Solanum nigrum): 5 (percentage of weeds killed was not less than 80%)
[5]
  herbicidal activity rating, SM (Stellaria media): 4 (percentage of weeds killed was not less than 60% and less than 80%)
[6]
  herbicidal activity rating, AR (Amaranthus retroflexus): 5 (percentage of weeds killed was not less than 80%)
[7]
  herbicidal activity rating, GA (Galium aparine): 5 (percentage of weeds killed was not less than 80%)
[8]
  herbicidal activity rating, MC (Matricaria chamomilla): 3 (percentage of weeds killed was not less than 40% and less than 60%)
[9]
  herbicidal activity rating, CO (Cassia obtusifolia): 5 (percentage of weeds killed was not less than 80%)
[10]
  herbicidal activity rating, VH (Veronica hederaefolia): 5 (percentage of weeds killed was not less than 80%)
[11]
  herbicidal activity rating, SA (Sinapis arvensis): 4 (percentage of weeds killed was not less than 60% and less than 80%)

## COc1cc(Oc2cccc(C(F)(F)F)c2)nc(C(=O)NC2CC2)c1 [Compound I-48, N-cyclopropyl-4-methoxy-6-{3-(trifluoromethyl)phenoxy}-2-pyridine carboxamide]
[1]
  herbicidal activity rating, AT (Abutilon theophrasti): 5 (percentage of weeds killed was not less than 80%)
[2]
  herbicidal activity rating, CA (Convolvulus arvensis): 5 (percentage of weeds killed was not less than 80%)
[3]
  herbicidal activity rating, BP (Bidens pilosa): 4 (percentage of weeds killed was not less than 60% and less than 80%)
[4]
  herbicidal activity rating, SN (Solanum nigrum): 5 (percentage of weeds killed was not less than 80%)
[5]
  herbicidal activity rating, SM (Stellaria media): 5 (percentage of weeds killed was not less than 80%)
[6]
  herbicidal activity rating, AR (Amaranthus retroflexus): 5 (percentage of weeds killed was not less than 80%)
[7]
  herbicidal activity rating, GA (Galium aparine): 5 (percentage of weeds killed was not less than 80%)
[8]
  herbicidal activity rating, MC (Matricaria chamomilla): 5 (percentage of weeds killed was not less than 80%)
[9]
  herbicidal activity rating, CO (Cassia obtusifolia): 5 (percentage of weeds killed was not less than 80%)
[10]
  herbicidal activity rating, VH (Veronica hederaefolia): 5 (percentage of weeds killed was not less than 80%)
[11]
  herbicidal activity rating, SA (Sinapis arvensis): 5 (percentage of weeds killed was not less than 80%)

## COc1cc(Oc2cccc(C(F)(F)F)c2)nc(C(=O)NCc2ccccc2)c1 [Compound I-45, N-benzyl-4-methoxy-6-{3-(trifluoromethyl)phenoxy}-2-pyridine carboxamide]
[1]
  herbicidal activity rating, AT (Abutilon theophrasti): 4 (percentage of weeds killed was not less than 60% and less than 80%)
[2]
  herbicidal activity rating, CA (Convolvulus arvensis): 5 (percentage of weeds killed was not less than 80%)
[3]
  herbicidal activity rating, BP (Bidens pilosa): 5 (percentage of weeds killed was not less than 80%)
[4]
  herbicidal activity rating, SN (Solanum nigrum): 5 (percentage of weeds killed was not less than 80%)
[5]
  herbicidal activity rating, SM (Stellaria media): 5 (percentage of weeds killed was not less than 80%)
[6]
  herbicidal activity rating, AR (Amaranthus retroflexus): 5 (percentage of weeds killed was not less than 80%)
[7]
  herbicidal activity rating, GA (Galium aparine): 5 (percentage of weeds killed was not less than 80%)
[8]
  herbicidal activity rating, MC (Matricaria chamomilla): 2 (percentage of weeds killed was not less than 20% and less than 40%)
[9]
  herbicidal activity rating, CO (Cassia obtusifolia): 5 (percentage of weeds killed was not less than 80%)
[10]
  herbicidal activity rating, VH (Veronica hederaefolia): 5 (percentage of weeds killed was not less than 80%)
[11]
  herbicidal activity rating, SA (Sinapis arvensis): 5 (percentage of weeds killed was not less than 80%)

## CCCNC(=S)c1cc(OC)cc(Oc2cccc(C(F)(F)F)c2)n1 [Compound I-34, N-(n-propyl)-4-methoxy-6-{3-(trifluoromethyl)phenoxy}-2-pyridine thiocarboxamide]
[1]
  herbicidal activity rating, AT (Abutilon theophrasti): 5 (percentage of weeds killed was not less than 80%)
[2]
  herbicidal activity rating, CA (Convolvulus arvensis): 4 (percentage of weeds killed was not less than 60% and less than 80%)
[3]
  herbicidal activity rating, BP (Bidens pilosa): 5 (percentage of weeds killed was not less than 80%)
[4]
  herbicidal activity rating, SN (Solanum nigrum): 5 (percentage of weeds killed was not less than 80%)
[5]
  herbicidal activity rating, SM (Stellaria media): 5 (percentage of weeds killed was not less than 80%)
[6]
  herbicidal activity rating, AR (Amaranthus retroflexus): 5 (percentage of weeds killed was not less than 80%)
[7]
  herbicidal activity rating, GA (Galium aparine): 5 (percentage of weeds killed was not less than 80%)
[8]
  herbicidal activity rating, MC (Matricaria chamomilla): 5 (percentage of weeds killed was not less than 80%)
[9]
  herbicidal activity rating, CO (Cassia obtusifolia): 5 (percentage of weeds killed was not less than 80%)
[10]
  herbicidal activity rating, VH (Veronica hederaefolia): 5 (percentage of weeds killed was not less than 80%)
[11]
  herbicidal activity rating, SA (Sinapis arvensis): 5 (percentage of weeds killed was not less than 80%)

## CCCCCNC(=O)c1cc(OC)cc(Oc2cccc(C(F)(F)F)c2)n1 [Compound I-52]
[1]
  herbicidal activity rating, AT (Abutilon theophrasti): 4 (percentage of weeds killed was not less than 60% and less than 80%)
[2]
  herbicidal activity rating, CA (Convolvulus arvensis): 5 (percentage of weeds killed was not less than 80%)
[3]
  herbicidal activity rating, BP (Bidens pilosa): 3 (percentage of weeds killed was not less than 40% and less than 60%)
[4]
  herbicidal activity rating, SN (Solanum nigrum): 5 (percentage of weeds killed was not less than 80%)
[5]
  herbicidal activity rating, SM (Stellaria media): 5 (percentage of weeds killed was not less than 80%)
[6]
  herbicidal activity rating, AR (Amaranthus retroflexus): 5 (percentage of weeds killed was not less than 80%)
[7]
  herbicidal activity rating, GA (Galium aparine): 5 (percentage of weeds killed was not less than 80%)
[8]
  herbicidal activity rating, MC (Matricaria chamomilla): 3 (percentage of weeds killed was not less than 40% and less than 60%)
[9]
  herbicidal activity rating, CO (Cassia obtusifolia): 4 (percentage of weeds killed was not less than 60% and less than 80%)
[10]
  herbicidal activity rating, VH (Veronica hederaefolia): 5 (percentage of weeds killed was not less than 80%)
[11]
  herbicidal activity rating, SA (Sinapis arvensis): 5 (percentage of weeds killed was not less than 80%)
